Results reported in ChEMBL document CHEMBL1201862, “PubChem BioAssay data set” (2004).
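48-hour exposure; five concentrations; linearly interpolated endpoints. Abbreviation: GI50, concentration required for 50% inhibition of growth.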 Activity calls are given as the source filed them. Cut-off read from the data, not from the text of the source: active = GI50 up to about 1.1 µM and inactive = higher.

Columns and labels:
Experiment in all cases: NCI anticancer screen, dose series, 48 h
786-0 = test system: 786-0
COLO 205 = test system: COLO 205
HCT-15 = test system: HCT-15
HOP-62 = test system: HOP-62
KM12 = test system: KM12
LOX IMVI = test system: LOX IMVI
Malme-3M = test system: Malme-3M
NCI-H226 = test system: NCI-H226
OVCAR-3 = test system: OVCAR-3
OVCAR-8 = test system: OVCAR-8
SK-MEL-28 = test system: SK-MEL-28
SN12C = test system: SN12C
SNB-19 = test system: SNB-19
SNB-75 = test system: SNB-75
SW-620 = test system: SW-620
TK-10 = test system: TK-10
HOP-92 = test system: HOP-92
HCC 2998 = test system: HCC 2998

Compound	GI50 (786-0)	GI50 (COLO 205)	GI50 (HCT-15)	GI50 (HOP-62)	GI50 (KM12)	GI50 (LOX IMVI)	GI50 (Malme-3M)	GI50 (NCI-H226)	GI50 (OVCAR-3)	GI50 (OVCAR-8)	GI50 (SK-MEL-28)	GI50 (SN12C)	GI50 (SNB-19)	GI50 (SNB-75)	GI50 (SW-620)	GI50 (TK-10)	GI50 (HOP-92)	GI50 (HCC 2998)
BrC1=CCC23CC=C(Br)[C@H]4CC2(COC3)C[C@@H]1O4 (stereo not given in full)	33.2 µM (inactive)	> 100 µM (inactive)	47.9 µM	> 100 µM (inactive)	54.2 µM (inactive)	71.6 µM (inactive)	> 100 µM (inactive)	44.1 µM (inactive)	63.5 µM (inactive)	63.8 µM (inactive)	22.6 µM (inactive)	52 µM (inactive)	37.9 µM (inactive)	20.1 µM (inactive)	55 µM (inactive)	80.2 µM (inactive)		
CC1C=C(OC(=O)c2ccccc2)C(=O)C(n2cc(F)c(=O)n(C(=O)c3ccccc3)c2=O)O1 (stereo not given)	28.5 µM (inactive)	26.9 µM (inactive)	32.5 µM	> 100 µM (inactive)		23.1 µM (inactive)	31 µM (inactive)		22.9 µM (inactive)	37.2 µM (inactive)	46.8 µM (inactive)	53.1 µM (inactive)	> 100 µM (inactive)	49.2 µM (inactive)	34.3 µM (inactive)	69.3 µM (inactive)	35.6 µM (inactive)	
CC1NOC(=O)C1/N=N/c1ccccc1Cl (stereo not given)	26.5 µM (inactive)	57.7 µM (inactive)		92.3 µM (inactive)	64.7 µM (inactive)	20.6 µM (inactive)	25.5 µM (inactive)		33.8 µM (inactive)	> 100 µM (inactive)	32.7 µM (inactive)	40.6 µM (inactive)	51.1 µM (inactive)	21.2 µM (inactive)	> 100 µM (inactive)	90.4 µM (inactive)	21.6 µM (inactive)	48.3 µM (inactive)
Cn1cc(-c2ccc3c4ccccc4n(C)c3c2)c2ccccc21	> 100 µM (inactive)	> 100 µM (inactive)	36.6 µM	> 100 µM (inactive)	93.3 µM (inactive)	> 100 µM (inactive)	> 100 µM (inactive)	> 100 µM (inactive)	> 100 µM (inactive)	> 100 µM (inactive)	> 100 µM (inactive)	> 100 µM (inactive)	> 100 µM (inactive)	> 100 µM (inactive)	> 100 µM (inactive)	> 100 µM (inactive)		> 100 µM (inactive)
CN(NC1OC(CO)C(O)C(O)C1O)c1ccccc1 (stereo not given)	> 100 µM (inactive)	> 100 µM (inactive)	> 100 µM	> 100 µM (inactive)	> 100 µM (inactive)	> 100 µM (inactive)	> 100 µM (inactive)	> 100 µM (inactive)	> 100 µM (inactive)	> 100 µM (inactive)	> 100 µM (inactive)		> 100 µM (inactive)		> 100 µM (inactive)	> 100 µM (inactive)	> 100 µM (inactive)	43.4 µM (inactive)
COC(OC)c1cccc2c1C(=O)CCC1(O)c3ccccc3C1C2 (stereo not given)	> 100 µM (inactive)	> 100 µM (inactive)	> 100 µM	> 100 µM (inactive)	74 µM (inactive)	> 100 µM (inactive)	> 100 µM (inactive)	83.8 µM (inactive)	7.52 µM (inactive)	> 100 µM (inactive)	> 100 µM (inactive)	> 100 µM (inactive)	> 100 µM (inactive)	> 100 µM (inactive)	> 100 µM (inactive)	> 100 µM (inactive)		> 100 µM (inactive)
CCCCCCCCCCOC(=O)c1cc[n+](C)cc1	17.6 µM (inactive)	16.7 µM (inactive)	15.9 µM	16.8 µM (inactive)	16.9 µM (inactive)	17.6 µM (inactive)	17.1 µM (inactive)	18.1 µM (inactive)	15.6 µM (inactive)	17.2 µM (inactive)	17.4 µM (inactive)	16.9 µM (inactive)	16.2 µM (inactive)	19.3 µM (inactive)	19.1 µM (inactive)	17.1 µM (inactive)	15.8 µM (inactive)	
NCc1cccc(O)c1O	> 100 µM (inactive)	> 100 µM (inactive)	> 100 µM	> 100 µM (inactive)	> 100 µM (inactive)	> 100 µM (inactive)	> 100 µM (inactive)	> 100 µM (inactive)	> 100 µM (inactive)	> 100 µM (inactive)	> 100 µM (inactive)	> 100 µM (inactive)	> 100 µM (inactive)	> 100 µM (inactive)	> 100 µM (inactive)	> 100 µM (inactive)	> 100 µM (inactive)	
CCCCCCCCCCCc1noc2c1C(=O)C(O)CC2 (stereo not given)	17.9 µM (inactive)	30.5 µM (inactive)	20.7 µM	45.8 µM (inactive)	22.9 µM (inactive)	18.1 µM (inactive)		16.1 µM (inactive)	17.5 µM (inactive)	18.9 µM (inactive)	23.8 µM (inactive)	16.1 µM (inactive)	22.1 µM (inactive)	24.1 µM (inactive)	18 µM (inactive)	56.6 µM (inactive)	20.1 µM (inactive)	
O=C(/C(=N/Nc1ccccc1)c1ccc([N+](=O)[O-])cc1)c1ccc([N+](=O)[O-])cc1	> 100 µM (inactive)	> 100 µM (inactive)	39 µM		> 100 µM (inactive)		> 100 µM (inactive)		> 100 µM (inactive)	> 100 µM (inactive)	> 100 µM (inactive)	> 100 µM (inactive)	> 100 µM (inactive)	85.5 µM (inactive)	> 100 µM (inactive)	> 100 µM (inactive)	46.2 µM (inactive)	> 100 µM (inactive)
CCCCNC(=O)OCC(COc1ccccc1OC)OC(=O)NCCCC (stereo not given)	> 100 µM (inactive)	> 100 µM (inactive)	> 100 µM	> 100 µM (inactive)	> 100 µM (inactive)	> 100 µM (inactive)	> 100 µM (inactive)	> 100 µM (inactive)	> 100 µM (inactive)	> 100 µM (inactive)	> 100 µM (inactive)	> 100 µM (inactive)	> 100 µM (inactive)	96.6 µM (inactive)	> 100 µM (inactive)	> 100 µM (inactive)		> 100 µM (inactive)
COc1ccc2c(C3(O)CCNCC3)c[nH]c2c1	> 100 µM (inactive)	> 100 µM (inactive)	> 100 µM	> 100 µM (inactive)	> 100 µM (inactive)	> 100 µM (inactive)	> 100 µM (inactive)		> 100 µM (inactive)	> 100 µM (inactive)	> 100 µM (inactive)	> 100 µM (inactive)	> 100 µM (inactive)	> 100 µM (inactive)	> 100 µM (inactive)	> 100 µM (inactive)	> 100 µM (inactive)	> 100 µM (inactive)
CCOC(=O)CSc1cc[nH]c(=O)n1	> 100 µM (inactive)	> 100 µM (inactive)	> 100 µM		> 100 µM (inactive)	> 100 µM (inactive)	> 100 µM (inactive)		> 100 µM (inactive)	> 100 µM (inactive)		> 100 µM (inactive)	> 100 µM (inactive)	> 100 µM (inactive)	> 100 µM (inactive)	> 100 µM (inactive)		
C1CCN2CC3CONC3C2C1 (stereo not given)	> 100 µM (inactive)	> 100 µM (inactive)	> 100 µM	> 100 µM (inactive)	> 100 µM (inactive)	> 100 µM (inactive)	> 100 µM (inactive)	> 100 µM (inactive)	> 100 µM (inactive)	> 100 µM (inactive)	> 100 µM (inactive)	> 100 µM (inactive)	> 100 µM (inactive)	> 100 µM (inactive)	> 100 µM (inactive)	> 100 µM (inactive)		> 100 µM (inactive)
O=C(c1ccccc1)c1c(CC(O)c2ccccn2)n(C(=O)c2ccccc2)c2ccccc12 (stereo not given)	26.1 µM (inactive)	23.1 µM (inactive)	23.4 µM	17.9 µM (inactive)	28.4 µM (inactive)		18.6 µM (inactive)	20.5 µM (inactive)	17.5 µM (inactive)	29.2 µM (inactive)	20.4 µM (inactive)		34.1 µM (inactive)	8.04 µM (inactive)	31.4 µM (inactive)	38.4 µM (inactive)	18.9 µM (inactive)	31.5 µM (inactive)
COC(=O)N(C(=O)OC)C(C(=O)O)C(C)C (stereo not given)	> 100 µM (inactive)	> 100 µM (inactive)		> 100 µM (inactive)	> 100 µM (inactive)	> 100 µM (inactive)		> 100 µM (inactive)		> 100 µM (inactive)	> 100 µM (inactive)	> 100 µM (inactive)	> 100 µM (inactive)	> 100 µM (inactive)	> 100 µM (inactive)	> 100 µM (inactive)	95.9 µM (inactive)	> 100 µM (inactive)
CC(C)C.C[N+](C)(C)C.OC(c1ccccc1)(C(F)(F)F)C(F)(F)F.OC(c1ccccc1)(C(F)(F)F)C(F)(F)F.[SiH3-]	2.97 µM (inactive)	6.49 µM (inactive)	2.13 µM		3.92 µM (inactive)		11.1 µM (inactive)	1.02 µM (active)	0.678 µM (active)	9.23 µM (inactive)	12.4 µM (inactive)	5.68 µM (inactive)	3.26 µM (inactive)	0.536 µM (active)	5 µM (inactive)	12.6 µM (inactive)	< 0.01 µM (active)	3.56 µM (inactive)
COc1ccc2c(=O)c(C)c(-c3ccccc3)oc2c1CN(C)C [DIMEFLINE]	> 100 µM (inactive)	> 100 µM (inactive)		> 100 µM (inactive)	> 100 µM (inactive)	> 100 µM (inactive)	> 100 µM (inactive)	> 100 µM (inactive)		> 100 µM (inactive)			> 100 µM (inactive)			> 100 µM (inactive)	> 100 µM (inactive)	> 100 µM (inactive)
